This is an account of results in ChEMBL document CHEMBL1151318, “New secosteroids from a gorgonian of the genus Muricella” (1998).

In brackets after ≈: the same amount, converted by molar mass.

One assay has as its system K562. The experiment in a line: Cytotoxicity against human K562 cells. It is filed as functional. The settings on record: read-out: LC50 (the source's name).
In assay [1] the target is Phospholipase A2 (Homo sapiens) (UniProt P04054). Briefly: Inhibition of PLA2 at 50 ug/mL.
Phospholipase A2 (Homo sapiens), sequence (P04054 23-148 limits assumed): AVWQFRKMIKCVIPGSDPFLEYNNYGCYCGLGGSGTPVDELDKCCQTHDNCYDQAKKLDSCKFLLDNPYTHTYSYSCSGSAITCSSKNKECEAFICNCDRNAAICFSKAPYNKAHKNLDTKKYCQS

With `Cc1ccc(O)cc1CC[C@@H]1C(=O)CC[C@]2(C)[C@@H]([C@H](C)CCCC(C)C)[C@@H](O)C[C@@H]12` [CALICOFEROL I], in the assay with K562, the CC50 is 9.6 mg/L (≈ 23.2 µM). `Cc1ccc(O)cc1CC[C@@H]1[C@H](O)CC[C@]2(C)[C@@H]([C@H](C)/C=C/C(C)C)CC[C@@H]12` [CALICOFEROL H]: the inhibition in assay [1] amounted to 67%. Besides, in the assay on K562, the CC50 stood at 10.7 mg/L (≈ 27.8 µM). As to `Cc1ccc(O)cc1CC[C@@H]1[C@H](O)CC[C@]2(C)[C@@H]([C@H](C)/C=C/C(C)C(C)C)CC[C@@H]12` (stereo partly drawn) [CALICOFEROL F], in the assay with K562, the CC50 stood at 3.2 mg/L (≈ 7.75 µM). In assay [1], `Cc1ccc(O)cc1CC[C@@H]1[C@H](O)CC[C@]2(C)[C@@H]([C@H](C)CCCC(C)C)CC[C@@H]12` [ASTROGORGIADIOL] showed an inhibition of 47%. Also, the CC50 with K562 amounted to 12.1 mg/L (≈ 30.2 µM). On to `CC(C)=CCC[C@@H](C)[C@H]1CC[C@H]2[C@H](CCc3cc(O)ccc3C)[C@H](O)CC[C@]12C` [CALICOFEROL G], for which the inhibition in assay [1] was determined as 55%. The CC50 in the assay on K562 was 2.1 mg/L (≈ 5.27 µM).
